# Reference: patent publication US4568689A, “Pharmaceutical preparation for the treatment of hypertensive disease and myocardial infarction” (priority 1983, dated 1986)
# Key:
# Format in all cases: in vivo
# [1] = system: arterial pressure of rats with spontaneous hypertension; assay: hypotensive effect, intraperitoneal, spontaneously hypertensive rats
# Method: The study of the hypotensive effect was carried out in experiments on spontaneously hypertensive male rats of the Akamoto-Aoki line aged 20-25 weeks. The prior art preparation-nifedipine was used for the purpose of comparison. The measurement of the arterial pressure was effected on the tail vein of the rats by the indirect method. The animals were divided into groups (10 in each) and trained for two weeks with the view to ensure their adaptation to the unit for the measurement of the arterial pressure. The level of the arterial pressure prior to administration of the test preparations was measured three times: two days, one day and directly prior to administration of the test preparations. The preparation was administered in the form of a 2.5% aqueous solution, nifedipine--in the form of a 2.5% suspension in Twin-80 intraperitoneally. […]
# [2] = system: arterial pressure and vegetative responses in narcotized animals; assay: arterial pressure, breathing and electrocardiogram in narcotized cats, intravenous
# Method: The effect of the pharmaceutical preparation according to the present invention on the arterial pressure and vegetative responses was studied in acute experiments on cats with a mass of 2.8-4.0 kg narcotized with α-glucochloralose (90 mg/kg) and urethane (100 mg/kg, intraperitoneally). The breathing, arterial pressure in the common carotid artery and electrocardiogram of the second standard lead were recorded.
# The influence of the preparation according to the present invention on hemodynamic effects of acetylcholine (0.1 μg/kg) neoepinephrine (0.2 μg/kg), noradrenaline (1 μg/kg), histamine (1.5 μg/kg) and angiotensin (0.1 μg/kg) was also studied. The preparation of this invention was intravenously administered in the form of a 2.5% solution in doses of 0.5 to 10 mg/kg. The peripheral part of the vagus nerve was irritated by supromaximum pulses with the frequency of 30 Hz and duration of 0.1 ms.
# [3] = system: arterial pressure of spontaneously hypertensive rats; assay: effect of the oral form on arterial pressure, spontaneously hypertensive rats
# [4] = 25 mg/kg intraperitoneally, 30 minutes
# [5] = 25 mg/kg intraperitoneally, 1 hour
# [6] = 25 mg/kg intraperitoneally, 2 hours
# [7] = 25 mg/kg intraperitoneally, 4 hours
# [8] = 50 mg/kg intraperitoneal, 30 minutes
# [9] = 50 mg/kg intraperitoneally, 30 minutes
# [10] = 50 mg/kg intraperitoneally, 1 hour
# [11] = 50 mg/kg intraperitoneally, 2 hours
# [12] = 50 mg/kg intraperitoneally, 4 hours
# [13] = 50 mg/kg intraperitoneally, 24 hours
# [14] = 24 hours after a single-time administration
compound,measurement,setting,value
"C[N+]1(C)CC(CC(=O)[O-])C(=O)N1 (stereo not shown) [Preparation of this invention, (1,1-dimethyl-3-oxopyrazolin-1-io-4-yl)acetate]","Variation of arterial pressure, diastolic",[1]; [4],-1 % of the initial
same,"Variation of arterial pressure, systolic",[1]; [4],-3 % of the initial
same,"Variation of arterial pressure, diastolic",[1]; [5],-7 % of the initial
same,"Variation of arterial pressure, systolic",[1]; [5],-5 % of the initial
same,"Variation of arterial pressure, diastolic",[1]; [6],-19 % of the initial
same,"Variation of arterial pressure, systolic",[1]; [6],-3 % of the initial
same,"Variation of arterial pressure, diastolic",[1]; [7],-18 % of the initial
same,"Variation of arterial pressure, systolic",[1]; [7],-7 % of the initial
same,reduction of diastolic pressure,[1]; [8],23.5%
same,reduction of systolic pressure,[1]; [8],17.6%
same,"Variation of arterial pressure, diastolic",[1]; [9],-23 % of the initial
same,"Variation of arterial pressure, systolic",[1]; [9],-17 % of the initial
same,"Variation of arterial pressure, diastolic",[1]; [10],-28 % of the initial
same,"Variation of arterial pressure, systolic",[1]; [10],-12 % of the initial
same,"Variation of arterial pressure, diastolic",[1]; [11],-26 % of the initial
same,"Variation of arterial pressure, systolic",[1]; [11],-18 % of the initial
same,"Variation of arterial pressure, diastolic",[1]; [12],-41 % of the initial
same,"Variation of arterial pressure, systolic",[1]; [12],-21 % of the initial
same,"Variation of arterial pressure, diastolic",[1]; [13],-19 % of the initial
same,"Variation of arterial pressure, systolic",[1]; [13],-17 % of the initial
same,reduction of diastolic pressure,[1]; [14],28.5%
same,reduction of systolic pressure,[1]; [14],18.8%
same,difference between systolic and diastolic pressures,[1]; see Table 1,increases the difference between systolic and diastolic pressures
same,Variation of arterial pressure,[2]; 5 mg/kg intravenously,-16%
same,peripheral resistance,[2]; in vivo,reduction of peripheral resistance
same,effect on breathing and electrocardiogram,"[2]; intravenously, 0.5 to 10 mg/kg",does not substantially affect the breathing and electrocardiogram of the animals
same,"Variation of arterial pressure, diastolic","[3]; 50 mg/kg per os, 30 minutes",-10 % of the initial
same,"Variation of arterial pressure, systolic","[3]; 50 mg/kg per os, 30 minutes",-3 % of the initial
same,"Variation of arterial pressure, diastolic","[3]; 50 mg/kg per os, 1 hour",+2 % of the initial
same,"Variation of arterial pressure, diastolic","[3]; 50 mg/kg per os, 2 hours",-8 % of the initial
same,"Variation of arterial pressure, systolic","[3]; 50 mg/kg per os, 2 hours",-5 % of the initial
same,"Variation of arterial pressure, diastolic","[3]; 50 mg/kg per os, 4 hours",-3 % of the initial
same,"Variation of arterial pressure, diastolic","[3]; 50 mg/kg per os, 24 hours",-2 % of the initial
same,"Variation of arterial pressure, systolic","[3]; 50 mg/kg per os, 24 hours",-7 % of the initial
same,"Variation of arterial pressure, diastolic","[3]; 75 mg/kg per os, 30 minutes",-12 % of the initial
same,"Variation of arterial pressure, systolic","[3]; 75 mg/kg per os, 30 minutes",-16 % of the initial
same,"Variation of arterial pressure, systolic","[3]; 75 mg/kg per os, 2 hours",-18 % of the initial
same,"Variation of arterial pressure, diastolic","[3]; 75 mg/kg per os, 4 hours",-11 % of the initial
same,"Variation of arterial pressure, systolic","[3]; 75 mg/kg per os, 4 hours",-8 % of the initial
same,"Variation of arterial pressure, diastolic","[3]; 75 mg/kg per os, 24 hours",-22 % of the initial
same,"Variation of arterial pressure, systolic","[3]; 75 mg/kg per os, 24 hours",-20 % of the initial
same,stable reduction of the arterial pressure,"[3]; 75 mg/kg per os, 24 hours after administration",about 20%
same,"Variation of arterial pressure, diastolic","[3]; 100 mg/kg per os, 30 minutes",-11 % of the initial
same,"Variation of arterial pressure, systolic","[3]; 100 mg/kg per os, 30 minutes",-13 % of the initial
same,"Variation of arterial pressure, diastolic","[3]; 100 mg/kg per os, 2 hours",-7 % of the initial
same,"Variation of arterial pressure, systolic","[3]; 100 mg/kg per os, 2 hours",-8 % of the initial
same,"Variation of arterial pressure, diastolic","[3]; 100 mg/kg per os, 4 hours",-13 % of the initial
same,"Variation of arterial pressure, systolic","[3]; 100 mg/kg per os, 4 hours",-13 % of the initial
same,"Variation of arterial pressure, systolic","[3]; 100 mg/kg per os, 24 hours",-12 % of the initial
